Reference: PMC7347136 (PLoS ONE, 2020)

Assays:
Test in all cases: Carna kinase panel screen
Assay type in all cases: biochemical
Conditions in all cases: read-out: % Inhibition ± SD
AKT2 = target: T1, AKT2 (Homo sapiens, UniProt P31751)
T1 construct: purchased Carna Biosciences
How it was run: (§1)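 First, percentage inhibition is computed for each test solution in a 10-point series, ATP held near Km. Then the concentration-inhibition curve is fitted with a four-parameter logistic equation to obtain IC50.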

ARG = target: T2, ARG (Homo sapiens, UniProt P42684)
T2 construct: purchased Carna Biosciences
How it was run: (§2)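 Ten-point dose-response, ATP ≈ Km. % inhibition vs concentration → 4-parameter logistic fit → IC50.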

CDK2 = target: T3, CDK2 (Homo sapiens, UniProt P24941)
T3 construct: purchased Carna Biosciences
How it was run: as §1

CDK9 = target: T4, CDK9 (Homo sapiens, UniProt P50750)
T4 construct: purchased Carna Biosciences
How it was run: as §1

CK1d = target: T5, CK1d (Homo sapiens, UniProt P48730)
T5 construct: purchased Carna Biosciences
How it was run: as §2

CLK1 = target: T6, CLK1 (Homo sapiens, UniProt P49759)
T6 construct: purchased Carna Biosciences
How it was run: as §1

CRIK = target: T7, CRIK (Homo sapiens, UniProt O14578)
T7 construct: purchased Carna Biosciences
How it was run: as §1

DAPK1 = target: T8, DAPK1 (Homo sapiens, UniProt P53355)
T8 construct: purchased Carna Biosciences
How it was run: (§3)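 10-pt curves; [ATP] ~Km; IC50 by 4PL fit of % inhibition.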

DCAMKL2 = target: T9, DCAMKL2 (Homo sapiens, UniProt Q8N568)
T9 construct: purchased Carna Biosciences
How it was run: as §1

DDR1 = target: T10, DDR1 (Homo sapiens, UniProt Q08345)
T10 construct: purchased Carna Biosciences
How it was run: as §3

DLK = target: T11, DLK (Homo sapiens, UniProt Q12852)
T11 construct: purchased Carna Biosciences
T11 sequence (Q12852 whole entry): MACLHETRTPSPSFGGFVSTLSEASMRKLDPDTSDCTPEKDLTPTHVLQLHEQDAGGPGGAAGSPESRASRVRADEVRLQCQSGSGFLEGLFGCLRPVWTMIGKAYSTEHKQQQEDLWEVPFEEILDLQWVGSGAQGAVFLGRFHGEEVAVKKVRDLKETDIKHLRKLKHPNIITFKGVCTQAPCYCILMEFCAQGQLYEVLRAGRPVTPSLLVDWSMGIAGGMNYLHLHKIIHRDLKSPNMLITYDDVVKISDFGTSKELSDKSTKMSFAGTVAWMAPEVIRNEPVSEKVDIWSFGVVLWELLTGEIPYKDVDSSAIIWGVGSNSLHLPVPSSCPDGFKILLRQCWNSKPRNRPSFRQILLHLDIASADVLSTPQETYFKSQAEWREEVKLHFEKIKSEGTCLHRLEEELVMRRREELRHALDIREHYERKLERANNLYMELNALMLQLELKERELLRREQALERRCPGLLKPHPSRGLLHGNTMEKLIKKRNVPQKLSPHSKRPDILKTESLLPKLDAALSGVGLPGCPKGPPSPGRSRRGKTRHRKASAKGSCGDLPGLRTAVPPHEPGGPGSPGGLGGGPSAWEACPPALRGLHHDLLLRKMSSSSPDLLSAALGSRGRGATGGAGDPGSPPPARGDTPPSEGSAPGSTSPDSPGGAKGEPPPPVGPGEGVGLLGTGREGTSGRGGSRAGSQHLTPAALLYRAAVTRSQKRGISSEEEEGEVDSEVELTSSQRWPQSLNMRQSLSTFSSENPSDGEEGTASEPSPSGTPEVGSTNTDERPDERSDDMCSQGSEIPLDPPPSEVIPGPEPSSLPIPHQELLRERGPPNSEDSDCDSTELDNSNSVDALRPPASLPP
How it was run: as §1

DYRK1B = target: T12, DYRK1B (Homo sapiens, UniProt Q9Y463)
T12 construct: purchased Carna Biosciences
T12 sequence (Q9Y463 whole entry): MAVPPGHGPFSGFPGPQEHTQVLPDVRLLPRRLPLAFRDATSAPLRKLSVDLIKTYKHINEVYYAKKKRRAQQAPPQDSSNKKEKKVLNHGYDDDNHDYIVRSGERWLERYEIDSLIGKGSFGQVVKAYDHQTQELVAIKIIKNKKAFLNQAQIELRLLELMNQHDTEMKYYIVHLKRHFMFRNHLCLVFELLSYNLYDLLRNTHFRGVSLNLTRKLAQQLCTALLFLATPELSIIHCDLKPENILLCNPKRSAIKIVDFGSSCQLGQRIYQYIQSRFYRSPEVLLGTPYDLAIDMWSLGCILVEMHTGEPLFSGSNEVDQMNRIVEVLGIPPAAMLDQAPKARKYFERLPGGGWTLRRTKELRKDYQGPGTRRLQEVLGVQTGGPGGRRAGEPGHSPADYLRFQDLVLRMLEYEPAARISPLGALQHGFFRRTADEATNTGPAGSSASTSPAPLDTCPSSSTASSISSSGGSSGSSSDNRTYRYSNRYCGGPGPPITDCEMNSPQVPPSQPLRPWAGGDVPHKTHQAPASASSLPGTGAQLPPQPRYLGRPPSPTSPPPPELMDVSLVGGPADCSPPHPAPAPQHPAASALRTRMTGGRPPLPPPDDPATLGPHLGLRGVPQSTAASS
How it was run: as §1

EEF2K = target: T13, EEF2K (Homo sapiens, UniProt O00418)
T13 construct: purchased Carna Biosciences
How it was run: as §3

EphA4 = target: T14, EphA4 (Homo sapiens, UniProt P54764)
T14 construct: purchased Carna Biosciences
How it was run: as §1

FAK = target: T15, FAK (Homo sapiens, UniProt Q05397)
T15 construct: purchased Carna Biosciences
How it was run: as §1

FES = target: T16, FES (Homo sapiens, UniProt P07332)
T16 construct: purchased Carna Biosciences
How it was run: as §1

IGF1R = target: T17, IGF1R (Homo sapiens, UniProt P08069)
T17 construct: purchased Carna Biosciences
How it was run: as §3

IRAK4 = target: T18, IRAK4 (Homo sapiens, UniProt Q9NWZ3)
T18 construct: purchased Carna Biosciences
T18 sequence (Q9NWZ3 whole entry): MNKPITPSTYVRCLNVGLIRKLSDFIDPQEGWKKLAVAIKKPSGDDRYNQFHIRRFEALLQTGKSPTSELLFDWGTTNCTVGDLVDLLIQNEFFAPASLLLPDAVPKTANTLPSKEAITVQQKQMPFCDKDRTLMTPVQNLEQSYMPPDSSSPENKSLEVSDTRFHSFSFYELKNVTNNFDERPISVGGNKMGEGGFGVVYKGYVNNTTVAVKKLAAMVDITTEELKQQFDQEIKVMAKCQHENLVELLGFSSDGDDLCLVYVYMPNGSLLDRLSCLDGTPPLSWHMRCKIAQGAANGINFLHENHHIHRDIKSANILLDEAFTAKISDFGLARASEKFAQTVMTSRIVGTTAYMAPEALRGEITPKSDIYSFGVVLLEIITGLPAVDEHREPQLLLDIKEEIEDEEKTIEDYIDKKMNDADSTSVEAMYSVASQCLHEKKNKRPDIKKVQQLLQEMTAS
How it was run: as §1

JAK1 = target: T19, JAK1 (Homo sapiens, UniProt P23458)
T19 construct: purchased Carna Biosciences
How it was run: as §1

JNK1 = target: T20, JNK1 (Homo sapiens, UniProt P45983)
T20 construct: purchased Carna Biosciences
How it was run: as §1

JNK2 = target: T21, JNK2 (Homo sapiens, UniProt P45984)
T21 construct: purchased Carna Biosciences
How it was run: as §3

KIT[T670I] = target: T22, KIT[T670I] (Homo sapiens, UniProt P10721, T670I)
T22 construct: purchased Carna Biosciences
How it was run: as §1

LYNa = target: T23, LYNa (Homo sapiens, UniProt P07948)
T23 construct: purchased Carna Biosciences
How it was run: as §1

MAP2K3 = target: T24, MAP2K3 (Homo sapiens, UniProt P46734)
T24 construct: purchased Carna Biosciences
How it was run: as §3

MAP2K5 = target: T25, MAP2K5 (Homo sapiens, UniProt Q13163)
T25 construct: purchased Carna Biosciences
How it was run: as §2

MARK4 = target: T26, MARK4 (Homo sapiens, UniProt Q96L34)
T26 construct: purchased Carna Biosciences
How it was run: as §1

MER = target: T27, MER (Homo sapiens, UniProt Q12866)
T27 construct: purchased Carna Biosciences
How it was run: as §1

MET = target: T28, MET (Homo sapiens, UniProt P08581)
T28 construct: purchased Carna Biosciences
How it was run: as §1

MNK1 = target: T29, MNK1 (Homo sapiens, UniProt Q9BUB5)
T29 construct: purchased Carna Biosciences
How it was run: as §1

MSK1 = target: T30, MSK1 (Homo sapiens, UniProt O75582)
T30 construct: purchased Carna Biosciences
How it was run: as §1

MSK2 = target: T31, MSK2 (Homo sapiens, UniProt O75676)
T31 construct: purchased Carna Biosciences
How it was run: as §1

PEK = target: T32, PEK (Homo sapiens, UniProt Q9NZJ5)
T32 construct: purchased Carna Biosciences
How it was run: as §1

PIM2 = target: T33, PIM2 (Homo sapiens, UniProt Q9P1W9)
T33 construct: purchased Carna Biosciences
T33 sequence (Q9P1W9 whole entry): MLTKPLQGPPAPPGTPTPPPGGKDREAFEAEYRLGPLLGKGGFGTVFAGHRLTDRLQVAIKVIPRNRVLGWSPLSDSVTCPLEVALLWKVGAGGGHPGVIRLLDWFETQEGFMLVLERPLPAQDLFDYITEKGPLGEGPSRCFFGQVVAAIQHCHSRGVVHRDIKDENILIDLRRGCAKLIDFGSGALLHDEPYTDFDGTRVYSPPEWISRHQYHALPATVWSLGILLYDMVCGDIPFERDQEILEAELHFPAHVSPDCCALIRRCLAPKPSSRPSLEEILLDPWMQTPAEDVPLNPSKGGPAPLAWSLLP
How it was run: as §1

PLK4 = target: T34, PLK4 (Homo sapiens, UniProt O00444)
T34 construct: purchased Carna Biosciences
How it was run: as §3

PRKX = target: T35, PRKX (Homo sapiens, UniProt P51817)
T35 construct: purchased Carna Biosciences
How it was run: as §1

PYK2 = target: T36, PYK2 (Homo sapiens, UniProt Q14289)
T36 construct: purchased Carna Biosciences
How it was run: as §1

ROCK1 = target: T37, ROCK1 (Homo sapiens, UniProt Q13464)
T37 construct: purchased Carna Biosciences
T37 sequence (Q13464 whole entry): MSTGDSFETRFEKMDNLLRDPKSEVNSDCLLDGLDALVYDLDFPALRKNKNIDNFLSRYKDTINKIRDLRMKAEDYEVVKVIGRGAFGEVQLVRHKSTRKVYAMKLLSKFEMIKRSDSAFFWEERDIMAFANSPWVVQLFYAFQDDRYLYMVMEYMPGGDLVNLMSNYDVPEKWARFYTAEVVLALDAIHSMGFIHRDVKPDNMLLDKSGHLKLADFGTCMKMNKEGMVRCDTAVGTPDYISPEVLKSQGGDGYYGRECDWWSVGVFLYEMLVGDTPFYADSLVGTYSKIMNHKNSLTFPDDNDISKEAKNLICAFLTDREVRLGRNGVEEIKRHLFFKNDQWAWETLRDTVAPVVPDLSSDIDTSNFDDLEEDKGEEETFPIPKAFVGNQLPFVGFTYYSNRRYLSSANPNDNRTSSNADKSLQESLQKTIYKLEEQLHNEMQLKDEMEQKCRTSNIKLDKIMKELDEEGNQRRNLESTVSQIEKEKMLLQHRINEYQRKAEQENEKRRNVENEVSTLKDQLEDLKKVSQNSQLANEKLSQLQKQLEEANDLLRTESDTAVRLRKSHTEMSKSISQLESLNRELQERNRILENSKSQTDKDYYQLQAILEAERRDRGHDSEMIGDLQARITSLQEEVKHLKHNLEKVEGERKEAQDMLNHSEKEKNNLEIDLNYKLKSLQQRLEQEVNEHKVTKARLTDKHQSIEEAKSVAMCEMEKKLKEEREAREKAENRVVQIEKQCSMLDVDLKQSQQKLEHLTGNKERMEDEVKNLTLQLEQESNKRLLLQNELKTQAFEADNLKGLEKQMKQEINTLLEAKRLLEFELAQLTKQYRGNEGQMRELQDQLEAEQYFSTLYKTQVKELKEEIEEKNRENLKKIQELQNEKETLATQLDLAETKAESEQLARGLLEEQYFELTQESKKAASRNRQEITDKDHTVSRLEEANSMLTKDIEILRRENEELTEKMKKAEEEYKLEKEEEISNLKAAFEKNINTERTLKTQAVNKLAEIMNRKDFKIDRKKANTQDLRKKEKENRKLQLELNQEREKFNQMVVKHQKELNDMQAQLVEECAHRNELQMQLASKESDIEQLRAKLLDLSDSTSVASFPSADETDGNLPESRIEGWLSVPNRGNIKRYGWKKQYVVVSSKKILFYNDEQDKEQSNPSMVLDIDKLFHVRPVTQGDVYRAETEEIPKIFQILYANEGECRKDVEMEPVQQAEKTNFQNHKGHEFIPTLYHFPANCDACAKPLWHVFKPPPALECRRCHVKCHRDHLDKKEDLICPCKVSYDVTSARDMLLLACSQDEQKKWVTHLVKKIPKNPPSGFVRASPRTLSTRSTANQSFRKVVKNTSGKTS
How it was run: as §1

SGK3 = target: T38, SGK3 (Homo sapiens, UniProt Q96BR1)
T38 construct: purchased Carna Biosciences
T38 sequence (Q96BR1 whole entry): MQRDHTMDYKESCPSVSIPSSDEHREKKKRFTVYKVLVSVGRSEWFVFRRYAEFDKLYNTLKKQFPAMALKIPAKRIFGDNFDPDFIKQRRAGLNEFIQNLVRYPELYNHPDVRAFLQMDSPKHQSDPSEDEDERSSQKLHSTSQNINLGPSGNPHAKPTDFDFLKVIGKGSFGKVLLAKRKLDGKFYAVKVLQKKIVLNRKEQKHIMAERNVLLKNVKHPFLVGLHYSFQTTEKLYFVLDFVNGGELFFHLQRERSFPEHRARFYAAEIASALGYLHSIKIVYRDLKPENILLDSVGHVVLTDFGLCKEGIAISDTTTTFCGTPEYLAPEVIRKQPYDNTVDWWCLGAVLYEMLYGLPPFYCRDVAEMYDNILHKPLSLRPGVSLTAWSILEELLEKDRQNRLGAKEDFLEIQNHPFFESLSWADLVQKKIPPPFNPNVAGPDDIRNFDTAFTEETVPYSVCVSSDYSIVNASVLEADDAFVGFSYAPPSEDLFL
How it was run: as §1

SRPK2 = target: T39, SRPK2 (Homo sapiens, UniProt P78362)
T39 construct: purchased Carna Biosciences
How it was run: as §3

TEC = target: T40, TEC (Homo sapiens, UniProt P42680)
T40 construct: purchased Carna Biosciences
How it was run: as §1

TSSK1 = target: T41, TSSK1 (Homo sapiens, UniProt Q9BXA7)
T41 construct: purchased Carna Biosciences
How it was run: as §1

TSSK2 = target: T42, TSSK2 (Homo sapiens, UniProt Q96PF2)
T42 construct: purchased Carna Biosciences
How it was run: as §2

p38b = target: T43, p38b (Homo sapiens, UniProt Q15759)
T43 construct: purchased Carna Biosciences
T43 sequence (Q15759 whole entry): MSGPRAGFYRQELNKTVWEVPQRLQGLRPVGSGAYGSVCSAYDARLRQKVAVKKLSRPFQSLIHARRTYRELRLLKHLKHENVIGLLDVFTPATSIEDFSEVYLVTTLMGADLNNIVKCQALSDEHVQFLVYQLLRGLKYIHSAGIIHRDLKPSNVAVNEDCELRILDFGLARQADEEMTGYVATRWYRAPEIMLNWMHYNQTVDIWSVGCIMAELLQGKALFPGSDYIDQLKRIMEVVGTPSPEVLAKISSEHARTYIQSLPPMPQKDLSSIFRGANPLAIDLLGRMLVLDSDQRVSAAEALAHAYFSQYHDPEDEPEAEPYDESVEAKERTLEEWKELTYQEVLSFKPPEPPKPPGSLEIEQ
How it was run: as §1

p38g = target: T44, p38g (Homo sapiens, UniProt P53778)
T44 construct: purchased Carna Biosciences
How it was run: as §1

T1 sequence (P31751 whole entry): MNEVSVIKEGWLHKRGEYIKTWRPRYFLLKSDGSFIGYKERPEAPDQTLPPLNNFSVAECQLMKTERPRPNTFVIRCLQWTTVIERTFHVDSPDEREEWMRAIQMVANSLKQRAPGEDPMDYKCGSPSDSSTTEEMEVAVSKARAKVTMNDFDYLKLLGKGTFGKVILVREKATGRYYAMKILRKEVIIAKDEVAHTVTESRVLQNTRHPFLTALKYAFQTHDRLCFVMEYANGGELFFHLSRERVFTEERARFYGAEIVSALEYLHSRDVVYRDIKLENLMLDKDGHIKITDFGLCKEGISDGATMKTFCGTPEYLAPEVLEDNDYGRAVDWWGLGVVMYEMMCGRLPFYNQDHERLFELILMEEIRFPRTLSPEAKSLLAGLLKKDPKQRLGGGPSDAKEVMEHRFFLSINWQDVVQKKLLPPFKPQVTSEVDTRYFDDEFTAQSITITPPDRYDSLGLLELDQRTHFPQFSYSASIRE

SMILES: CC[C@H](Nc1nc(NCc2cnc(C)cc2C)c2ncn(C(C)C)c2n1)[C@@H](C)O [Fadraciclib, 2-pentanol, 3-[[6-[[(4,6-dimethyl-3-pyridinyl)methyl]amino]-9-(1-methylethyl)-9Hpurin-2-yl]amino]-, (2R,3S)]
- inhibition at 1 µM (AKT2): 1.5 ± 0.1%
- inhibition at 1 µM (ARG): 1.8 ± 0.1%
- inhibition at 1 µM (CDK2): 97.3%
- inhibition at 1 µM (CDK9): 96.6 ± 3.2%
- inhibition at 1 µM (CK1d): 13.8 ± 0.4%
- inhibition at 1 µM (CLK1): 70.2 ± 6.8%
- inhibition at 1 µM (CRIK): -1.2%
- inhibition at 1 µM (DAPK1): -8.8 ± 0.1%
- inhibition at 1 µM (DCAMKL2): -12.4 ± 0.1%
- inhibition at 1 µM (DDR1): -9.3 ± 0.1%
- inhibition at 1 µM (DLK): 0.8%
- inhibition at 1 µM (DYRK1B): 15.5 ± 1.3%
- inhibition at 1 µM (EEF2K): -10.3 ± 0.2%
- inhibition at 1 µM (EphA4): 1%
- inhibition at 1 µM (FAK): 23.4 ± 2.9%
- inhibition at 1 µM (FES): 14.9 ± 1.1%
- inhibition at 1 µM (IGF1R): -17.1 ± 0.2%
- inhibition at 1 µM (IRAK4): -10.1 ± 0.1%
- inhibition at 1 µM (JAK1): -3.1%
- inhibition at 1 µM (JNK1): -13.5 ± 1.3%
- inhibition at 1 µM (JNK2): -19.3 ± 2.2%
- inhibition at 1 µM (KIT[T670I]): -9.2 ± 0.2%
- inhibition at 1 µM (LYNa): 2.2 ± 0.1%
- inhibition at 1 µM (MAP2K3): -12.3 ± 0.3%
- inhibition at 1 µM (MAP2K5): 11.9 ± 1.6%
- inhibition at 1 µM (MARK4): -5.1 ± 0.4%
- inhibition at 1 µM (MER): -9.1 ± 0.1%
- inhibition at 1 µM (MET): -8.3 ± 0.1%
- inhibition at 1 µM (MNK1): -13.1 ± 1.6%
- inhibition at 1 µM (MSK1): 5.5 ± 0.4%
- inhibition at 1 µM (MSK2): -3.7%
- inhibition at 1 µM (PEK): 0.3%
- inhibition at 1 µM (PIM2): 2.9 ± 0.2%
- inhibition at 1 µM (PLK4): -38.5 ± 1%
- inhibition at 1 µM (PRKX): -4.2%
- inhibition at 1 µM (PYK2): 11.7 ± 0.2%
- inhibition at 1 µM (ROCK1): -1.3%
- inhibition at 1 µM (SGK3): 6.2 ± 0.1%
- inhibition at 1 µM (SRPK2): -3.8 ± 0.1%
- inhibition at 1 µM (TEC): -14.9%
- inhibition at 1 µM (TSSK1): 16 ± 0.5%
- inhibition at 1 µM (TSSK2): 0.7%
- inhibition at 1 µM (p38b): -19 ± 0.2%
- inhibition at 1 µM (p38g): -0.6%
